# Measured values taken from patent US10023575B2, “Cyclic ether derivatives of pyrazolo[1,5-a]pyrimidine-3-carboxyamide” (Boehringer Ingelheim International GmbH, priority 2015, dated 2018).
# How the values were obtained:
# PDE10 = PDE10 (Homo sapiens (Human), UniProt Q9Y233); assay: Phosphodiesterase (PDE) 10 assay with fluorescent substrate (IMAP, fluorescence polarization); type: biochemical; conditions: labeled cAMP 30 nM
# Description: (§1) The PDE reaction cleaves cAMP to AMP. The IMAP system (Molecular Device) using fluorescence polarization (FP) as detection principle was used to measure enzyme activity. A fluorescent labeled cAMP was used as substrate for the reaction, generating a labeled AMP. The fluorescent AMP binds specifically to the large M(III)-based nano-particles which reduces the rotational speed of the substrate and thus increases its polarization.
# (§2) The inhibition of PDE 2A or 10 enzyme activity was assessed using IMAP-Phosphodiesterase-cAMP fluorescence labeled substrate (Molecular Devices, Order No. R7506), IMAP TR-FRET screening express (Molecular Devices, Order No. R8160, the TR-FRET component will not be used) and PDE 2A or PDE10 protein expressed upon baculovirus infection in SF9 cells. The cells were incubated after infection for ˜3 days and protein production was confirmed by Western Blot. The cells were collected by centrifugation and the pellet frozen in liquid nitrogen before it was resuspended in PBS containing 1% Triton X-100 and protease inhibitors. After 45 min incubation on ice, the cell debris was removed by centrifugation (13.000 rpm, 30 min).
# (§3) All reactions were performed in 384 well plates, Perkin Elmer black optiplates and IMAP reaction buffer with 0.1% Tween20 (kit component)
# (§4) Compounds were serial diluted in DMSO. With an intermediate dilution step with reaction buffer DMSO concentration was reduced to achieve 1% DMSO in the assay reaction. Setup of the assay started with 10 μl enzyme (˜10 ng/well, depending on prep. batch), 5 μl compound, reaction was started by addition of 5 μl labeled cAMP (30 nM, final concentration), immediately mixed for 15 seconds on a Eppendorf mixmate (2000 rpm) followed by an incubation at room temperature for 90 minutes in the dark. Reaction is stopped by adding of 60 μl binding buffer for FP/cAMP (kit component).
# (§5) Each assay plate contained wells with vehicle controls (1% DMSO) for the measurement of non-inhibited reaction (=100% control) and wells without enzyme as 0% controls.
# PDE 2A = PDE 2A (Homo sapiens (Human), UniProt O00408); assay: Phosphodiesterase (PDE) 2A assay with fluorescent substrate (IMAP, fluorescence polarization); type: biochemical; conditions: labeled cAMP 30 nM, read-out: PDE2 IC50
# Description: as §1, §2, §3, §4, §5
# PDE10, sequence (Q9Y233 whole entry): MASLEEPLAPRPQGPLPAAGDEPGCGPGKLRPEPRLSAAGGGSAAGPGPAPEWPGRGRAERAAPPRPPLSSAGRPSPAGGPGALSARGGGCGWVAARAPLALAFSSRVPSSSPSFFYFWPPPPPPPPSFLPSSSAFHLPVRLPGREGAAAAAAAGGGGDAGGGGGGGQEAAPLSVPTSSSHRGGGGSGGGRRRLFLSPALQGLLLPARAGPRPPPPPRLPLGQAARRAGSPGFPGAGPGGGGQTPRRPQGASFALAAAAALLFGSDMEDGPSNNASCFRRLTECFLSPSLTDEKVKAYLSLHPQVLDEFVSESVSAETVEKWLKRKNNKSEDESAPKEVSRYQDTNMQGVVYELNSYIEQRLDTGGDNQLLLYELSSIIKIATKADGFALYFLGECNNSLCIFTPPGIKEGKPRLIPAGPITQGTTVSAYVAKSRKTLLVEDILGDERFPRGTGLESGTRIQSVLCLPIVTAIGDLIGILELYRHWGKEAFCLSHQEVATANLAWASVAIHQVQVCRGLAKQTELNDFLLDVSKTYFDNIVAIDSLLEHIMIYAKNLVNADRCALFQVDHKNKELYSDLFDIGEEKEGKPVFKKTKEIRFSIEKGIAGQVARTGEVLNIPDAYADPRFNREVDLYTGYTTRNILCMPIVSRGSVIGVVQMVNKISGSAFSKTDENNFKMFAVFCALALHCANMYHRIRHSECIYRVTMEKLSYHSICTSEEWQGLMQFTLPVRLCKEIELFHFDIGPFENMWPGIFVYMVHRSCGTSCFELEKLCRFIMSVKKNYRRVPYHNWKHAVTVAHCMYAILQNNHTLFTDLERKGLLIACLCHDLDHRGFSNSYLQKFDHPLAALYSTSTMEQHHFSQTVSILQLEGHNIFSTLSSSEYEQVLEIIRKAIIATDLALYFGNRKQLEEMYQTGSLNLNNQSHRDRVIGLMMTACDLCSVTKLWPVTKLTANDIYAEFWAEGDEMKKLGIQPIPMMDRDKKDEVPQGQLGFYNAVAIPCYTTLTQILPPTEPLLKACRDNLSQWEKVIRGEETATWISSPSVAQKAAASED
# PDE 2A, sequence (O00408 whole entry, species assumed): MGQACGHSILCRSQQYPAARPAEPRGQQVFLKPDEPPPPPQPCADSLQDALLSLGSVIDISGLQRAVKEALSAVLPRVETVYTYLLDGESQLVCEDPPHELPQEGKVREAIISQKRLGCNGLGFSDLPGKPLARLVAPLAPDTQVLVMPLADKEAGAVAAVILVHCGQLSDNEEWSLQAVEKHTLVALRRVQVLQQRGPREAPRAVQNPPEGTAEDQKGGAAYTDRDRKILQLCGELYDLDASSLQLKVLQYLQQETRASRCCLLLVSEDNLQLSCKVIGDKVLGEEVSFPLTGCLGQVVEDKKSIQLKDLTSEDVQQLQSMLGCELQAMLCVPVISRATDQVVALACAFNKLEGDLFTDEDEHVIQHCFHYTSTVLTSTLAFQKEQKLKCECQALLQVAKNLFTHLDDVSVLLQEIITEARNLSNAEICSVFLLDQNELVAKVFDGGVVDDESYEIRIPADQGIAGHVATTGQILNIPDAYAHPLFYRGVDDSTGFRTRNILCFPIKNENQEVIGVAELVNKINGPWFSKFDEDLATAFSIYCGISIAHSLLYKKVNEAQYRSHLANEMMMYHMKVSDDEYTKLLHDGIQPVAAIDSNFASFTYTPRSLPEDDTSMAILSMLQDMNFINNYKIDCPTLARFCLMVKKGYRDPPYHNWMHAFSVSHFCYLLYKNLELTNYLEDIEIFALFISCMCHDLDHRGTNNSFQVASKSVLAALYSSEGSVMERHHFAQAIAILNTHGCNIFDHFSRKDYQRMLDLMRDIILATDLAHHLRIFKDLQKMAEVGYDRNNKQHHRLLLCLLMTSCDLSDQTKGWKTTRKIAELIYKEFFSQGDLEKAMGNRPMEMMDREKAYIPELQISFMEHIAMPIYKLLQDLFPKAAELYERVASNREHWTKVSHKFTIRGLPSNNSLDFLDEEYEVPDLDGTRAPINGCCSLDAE
SMILES,IC50 (PDE10) [nM],IC50 (PDE 2A) [nM]
O=C(NC1(c2ccc(C(F)(F)F)cc2)CCCOC1)c1cnn2cc(C3CC3)cnc12 (racemic) [Example 32],> 10000,67
O=C(NC1(c2ccc(OC(F)(F)F)cc2)CCCOC1)c1cnn2cc(C3CC3)cnc12 (racemic) [Example 33],> 10000,83
O=C(NC1(c2ccc(C(F)(F)F)cc2F)CCOC1)c1cnn2cc(C3CC3)cnc12 (racemic) [Example 34],10800,27
Cc1cnc2c(C(=O)NC3(c4ccc(C(F)(F)F)cc4)CCOC3)cnn2c1 (racemic) [Example 36],> 10000,–
O=C(NC1(c2ccc(Cl)cc2F)CCOC1)c1cnn2cc(C3CC3)cnc12 (racemic) [Example 38],6710,331
Cc1cnc2c(C(=O)NC3(c4ccc(Cl)cc4F)CCOC3)cnn2c1 (racemic) [Example 39],> 10000,568
Cc1nn2cc(C3CC3)cnc2c1C(=O)NC1(c2ccc(C(F)(F)F)nc2)CCOC1 (racemic) [Example 42],5590,130
Cc1cnc2c(C(=O)NC3(c4ccc(C(F)(F)F)cn4)CCOC3)c(C)nn2c1 (racemic) [Example 44],–,840
Cc1cnc2c(C(=O)NC3(c4ccc(C(F)(F)F)cc4F)CCOCC3O)cnn2c1 (racemic) [Example 47],> 10000,–
O=C(N[C@]1(c2ccc(C(F)(F)F)cc2F)CCOC[C@H]1O)c1cnn2cc(C3CC3)cnc12 (racemic) [Example 48],6620,1.35
O=C(N[C@]1(c2ccc(C(F)(F)F)cc2F)CCOC[C@@H]1O)c1cnn2cc(C3CC3)cnc12 (racemic) [Example 49],> 10000,70
Cc1cnc2c(C(=O)NC3(c4ccc(C(F)(F)F)nc4)CCOCC3O)cnn2c1 (racemic) [Example 50],> 10000,596
O=C(NC1(c2ccc(C(F)(F)F)nc2)CCOCC1O)c1cnn2cc(C3CC3)cnc12 (racemic) [Example 52],> 10000,231
Cc1cnc2c(C(=O)NC3(c4ncc(C(F)(F)F)cc4F)CCOCC3O)cnn2c1 (racemic) [Example 56],> 10000,229
O=C(NC1(c2ncc(C(F)(F)F)cc2F)CCOCC1O)c1cnn2cc(C3CC3)cnc12 (racemic) [Example 57],> 10000,103
Cc1cnc2c(C(=O)NC3(c4ccc(C(F)(F)F)cc4)CCOCC3O)cnn2c1 (racemic) [Example 59],> 10000,60
Cc1nn2cc(C3CC3)cnc2c1C(=O)NC1(c2ncc(C(F)(F)F)cc2F)CCOCC1O (racemic) [Example 61],6650,19
Cc1nn2cc(C3CC3)cnc2c1C(=O)NC1(c2ncc(C(F)(F)F)cc2F)CCOCC1(C)O (racemic) [Example 62],–,127
O=C(NC1(c2ccc(C(F)(F)F)cn2)CCOCC1O)c1cnn2cc(C3CC3)cnc12 (racemic) [Example 63],> 10000,124
Cc1cnc2c(C(=O)NC3(c4ccc(C(F)(F)F)cn4)CCOCC3O)cnn2c1 (racemic) [Example 64],> 10000,496
Cc1nn2cc(C3CC3)cnc2c1C(=O)NC1(c2ccc(C(F)(F)F)cn2)CCOCC1O (racemic) [Example 65],9760,30
"Cc1cnc2c(C(=O)NC3(c4ccc(C(F)(F)F)cc4F)COCC3O)cnn2c1 (single isomer, unassigned) [Example 72]",> 10000,–
"Cc1cnc2c(C(=O)NC3(c4ccc(C(F)(F)F)cc4F)COCC3O)cnn2c1 (single isomer, unassigned) [Example 73]",> 10000,–

SMILES,IC50 (PDE10) [nM],IC50 (PDE 2A) [nM]
"Cc1cnc2c(C(=O)NC3(c4ccc(C(F)(F)F)cc4F)COCC3O)cnn2c1 (single isomer, unassigned) [Example 74]",> 10000,–
"Cc1cnc2c(C(=O)NC3(c4ccc(C(F)(F)F)cc4F)COCC3O)cnn2c1 (single isomer, unassigned) [Example 75]",> 10000,–
"O=C(NC1(c2ccc(C(F)(F)F)cc2F)CCOCC1O)c1cnn2cc(C3CC3)cnc12 (single isomer, unassigned) [Example 82b]",8460,40
"Cc1cnc2c(C(=O)NC3(c4ccc(C(F)(F)F)nc4)CCOCC3O)cnn2c1 (single isomer, unassigned) [Example 87a]",> 10000,1000
"Cc1cnc2c(C(=O)NC3(c4ccc(C(F)(F)F)nc4)CCOCC3O)cnn2c1 (single isomer, unassigned) [Example 87b]",–,184
"O=C(NC1(c2ccc(C(F)(F)F)nc2)CCOCC1O)c1cnn2cc(C3CC3)cnc12 (single isomer, unassigned) [Example 89a]",> 10000,1000
"Cc1nn2cc(C3CC3)cnc2c1C(=O)NC1(c2ncc(C(F)(F)F)cc2F)CCOCC1O (single isomer, unassigned) [Example 90a]",8590,200
"Cc1nn2cc(C3CC3)cnc2c1C(=O)NC1(c2ncc(C(F)(F)F)cc2F)CCOCC1O (single isomer, unassigned) [Example 90b]",7350,14
"Cc1cnc2c(C(=O)NC3(c4ccc(C(F)(F)F)cc4F)COCC3(C)O)cnn2c1 (single isomer, unassigned) [Example 92a]",> 10000,–
"Cc1cnc2c(C(=O)NC3(c4ccc(C(F)(F)F)cc4F)COCC3(C)O)cnn2c1 (single isomer, unassigned) [Example 92b]",> 10000,–
"Cc1cnc2c(C(=O)NC3(c4ccc(C(F)(F)F)cc4F)COCC3(C)O)cnn2c1 (single isomer, unassigned) [Example 93a]",> 10000,–
"Cc1cnc2c(C(=O)NC3(c4ccc(C(F)(F)F)cc4F)COCC3(C)O)cnn2c1 (single isomer, unassigned) [Example 93b]",> 10000,–
Cc1cnc2c(C(=O)NC3(c4ccc(Cl)cc4F)CCOCC3)c(C)nn2c1 [Example 4],550,48
Cc1cnc2c(C(=O)NC3(c4ccc(Cl)cc4F)CCOCC3)cnn2c1 [Example 5],12200,258
O=C(NC1(c2ccc(F)cc2Cl)CCOCC1)c1cnn2cc(C3CC3)cnc12 [Example 6],> 10000,199
O=C(NC1(c2ccc(Cl)cc2F)CCOCC1)c1cnn2cc(C3CC3)cnc12 [Example 7],9110,77
O=C(NC1(c2ccc(C(F)(F)F)cc2)CCOCC1)c1cnn2cc(C3CC3)cnc12 [Example 8],> 10000,69
Cc1cnc2c(C(=O)NC3(c4ccc(C(F)(F)F)cc4)CCOCC3)cnn2c1 [Example 9],> 10000,117
Cc1nn2cc(C3CC3)cnc2c1C(=O)NC1(c2ccc3ccccc3n2)CCOCC1 [Example 11],1470,297
Cc1cnc2c(C(=O)NC3(c4ccc5ccccc5n4)CCOCC3)cnn2c1 [Example 12],> 10000,1650
O=C(NC1(c2ccc(Br)cc2)CCOCC1)c1cnn2cc(C3CC3)cnc12 [Example 13],9910,359
O=C(NC1(c2ccc(OC(F)F)c(F)c2)CCOCC1)c1cnn2cc(C3CC3)cnc12 [Example 14],8430,456
Cc1cnc2c(C(=O)NC3(c4ccc(C(F)(F)F)cc4F)COCC3(C)O)cnn2c1 (stereo not drawn) [Example 58],> 10000,–
